The source of these data is patent publication US12310975B2, “Modulators of BCL6 proteolysis and associated methods of use” (Arvinas Operations, Inc., priority 2019, dated 2025).

For orientation: IC50 means the concentration that gives 50% inhibition. One may read the Dmax as the greatest extent of degradation seen. A high value points to deep degradation.

The target in one test is BCL6 (Homo sapiens (Human), UniProt P41182). Description: Immunofluorescence high content imaging of BCL6 degradation in T47D cells.
Conditions: not given
It counts as cell-based. The procedure, abridged: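 BCL6 loss was quantified by high-content imaging (10×, 4 fields/well) after PFA fixation and anti-BCL6/Alexa-488 staining with Hoechst nuclear and CellMask counterstains. Compounds were applied for 3 days to T47D breast cancer cells in RPMI-10% FBS, 11 points, 3-fold steps, top 0.1 or 1 μM.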
As for `CCn1c(=O)c(OCC(=O)NC)cc2cc(Nc3nc(N4CCN(C(C)(C)C5CCN(c6cccc7c6C(=O)N(C6CCC(=O)NC6=O)C7=O)CC5)CC4)ncc3Cl)ccc21` (stereo not shown) [compound 312, 2-{[6-({5-chloro-2-[4-(2-{1-[2-(2,6-dioxopiperidin-3-yl)-1,3-dioxo-2,3-dihydro-1H-isoindol-4-yl]piperidin-4-yl}propan-2-yl)piperazin-1-yl]pyrimidin-4-yl}amino)-1-ethyl-2-oxo-1,2-dihydroquinolin-3-yl]oxy}-N-methylacetamide], the IC50 was less than 10 nM.

`CCn1c(=O)c(OCC(=O)NC)cc2cc(Nc3nc(N4CCN(C(C)(C)C5CCN(c6ccc7c(c6)CN(C6CCC(=O)NC6=O)C7=O)CC5)CC4)ncc3Cl)ccc21` (stereo not shown) [compound 313, 2-{[6-({5-chloro-2-[4-(2-{1-[2-(2,6-dioxopiperidin-3-yl)-1-oxo-2,3-dihydro-1H-isoindol-5-yl]piperidin-4-yl}propan-2-yl)piperazin-1-yl]pyrimidin-4-yl}amino)-1-ethyl-2-oxo-1,2-dihydroquinolin-3-yl]oxy}-N-methylacetamide]: the 50% inhibitory concentration (IC50) was less than 10 nM.

Staying with this test, now noted: T47D.
Take `CCn1c(=O)c(OCC(=O)NC)cc2cc(Nc3nc(N4CCN(C(C)(C)C5CCN(c6cccc7c6C(=O)N(C6CCC(=O)NC6=O)C7=O)CC5)CC4)ncc3Cl)ccc21` (stereo not shown) [compound 312, 2-{[6-({5-chloro-2-[4-(2-{1-[2-(2,6-dioxopiperidin-3-yl)-1,3-dioxo-2,3-dihydro-1H-isoindol-4-yl]piperidin-4-yl}propan-2-yl)piperazin-1-yl]pyrimidin-4-yl}amino)-1-ethyl-2-oxo-1,2-dihydroquinolin-3-yl]oxy}-N-methylacetamide]: the Dmax was no less than 70%.

For `CCn1c(=O)c(OCC(=O)NC)cc2cc(Nc3nc(N4CCN(C(C)(C)C5CCN(c6ccc7c(c6)CN(C6CCC(=O)NC6=O)C7=O)CC5)CC4)ncc3Cl)ccc21` (stereo not shown) [compound 313, 2-{[6-({5-chloro-2-[4-(2-{1-[2-(2,6-dioxopiperidin-3-yl)-1-oxo-2,3-dihydro-1H-isoindol-5-yl]piperidin-4-yl}propan-2-yl)piperazin-1-yl]pyrimidin-4-yl}amino)-1-ethyl-2-oxo-1,2-dihydroquinolin-3-yl]oxy}-N-methylacetamide], the Dmax fell in the range of 50 to 70%.

Staying with this test, now noted: T47D cells.
Regarding `CCCn1c(=O)c(OCC(=O)NC)cc2cc(Nc3nc(N4CCN(CC5CCN(c6ccc7c(c6)C(=O)N(C6CCC(=O)NC6=O)C7=O)CC5)CC4)ncc3Cl)ccc21` (stereo not shown) [compound 314, 2-{[6-({5-chloro-2-[4-({1-[2-(2,6-dioxopiperidin-3-yl)-1,3-dioxo-2,3-dihydro-1H-isoindol-5-yl]piperidin-4-yl}methyl)piperazin-1-yl]pyrimidin-4-yl}amino)-2-oxo-1-propyl-1,2-dihydroquinolin-3-yl]oxy}-N-methylacetamide], the Dmax lay within 50 to 70% and the half-inhibitory concentration (IC50) lay within 10 to 50 nM.

Turning to `CNC(=O)COc1cc2cc(Nc3nc(N4CCN(C(C)(C)C5CCN(c6ccc(C(=O)NC7CCC(=O)NC7=O)c(OC)c6)CC5)CC4)ncc3Cl)ccc2n(C)c1=O` (stereo not shown) [compound 315, 4-[4-(2-{4-[5-chloro-4-({1-methyl-3-[(methylcarbamoyl)methoxy]-2-oxo-1,2-dihydroquinolin-6-yl}amino)pyrimidin-2-yl]piperazin-1-yl}propan-2-yl)piperidin-1-yl]-N-(2,6-dioxopiperidin-3-yl)-2-methoxybenzamide], the greatest degradation seen (Dmax) lay in the range of 50 to 70% and the 50% inhibitory concentration (IC50) was 10 to 50 nM.

For the compound `CCn1c(=O)c(OCC(=O)NC)cc2cc(Nc3nc(N4CCC(CN5CC(C6CN(c7ccc8c(c7)C(=O)N(C7CCC(=O)NC7=O)C8=O)C6)C5)CC4)ncc3Cl)ccc21` (stereo not shown) [compound 316, 2-{[6-({5-chloro-2-[4-({1′-[2-(2,6-dioxopiperidin-3-yl)-1,3-dioxo-2,3-dihydro-1H-isoindol-5-yl]-[3,3′-biazetidin]-1-yl}methyl)piperidin-1-yl]pyrimidin-4-yl}amino)-1-ethyl-2-oxo-1,2-dihydroquinolin-3-yl]oxy}-N-methylacetamide], the Dmax was in the range of 50 to 70% and the IC50 was less than 10 nM.

The compound `CCCCn1c(=O)c(OCC(=O)NC)cc2cc(Nc3nc(N4CCN(CC5CCN(c6ccc7c(c6)C(=O)N(C6CCC(=O)NC6=O)C7=O)CC5)CC4)ncc3Cl)ccc21` (stereo not shown) [compound 317, 2-{[1-butyl-6-({5-chloro-2-[4-({1-[2-(2,6-dioxopiperidin-3-yl)-1,3-dioxo-2,3-dihydro-1H-isoindol-5-yl]piperidin-4-yl}methyl)piperazin-1-yl]pyrimidin-4-yl}amino)-2-oxo-1,2-dihydroquinolin-3-yl]oxy}-N-methylacetamide] returned a Dmax of 50 to 70% and a 50% inhibitory concentration (IC50) of less than 10 nM.

Take `CCCn1c(=O)c(OCC(=O)NC)cc2cc(Nc3nc(N4CCC[C@H](COc5cccc6c5C(=O)N(C5CCC(=O)NC5=O)C6=O)C4)ncc3Cl)ccc21` (stereo partly drawn) [compound 318, 2-{[6-({5-chloro-2-[(3S)-3-({[2-(2,6-dioxopiperidin-3-yl)-1,3-dioxo-2,3-dihydro-1H-isoindol-4-yl]oxy}methyl)piperidin-1-yl]pyrimidin-4-yl}amino)-2-oxo-1-propyl-1,2-dihydroquinolin-3-yl]oxy}-N-methylacetamide]: the Dmax lay in the range of 50 to 70% and the half-inhibitory concentration (IC50) fell in the range of 50 to 100 nM.

As for `CNC(=O)COc1cc2cc(Nc3nc(N4CCN(CC5CCN(c6cccc(C(=O)NC7CCC(=O)NC7=O)c6)CC5)CC4)ncc3Cl)ccc2n(C)c1=O` (stereo not shown) [compound 319, 3-[4-({4-[5-chloro-4-({1-methyl-3-[(methylcarbamoyl)methoxy]-2-oxo-1,2-dihydroquinolin-6-yl}amino)pyrimidin-2-yl]piperazin-1-yl}methyl)piperidin-1-yl]-N-(2,6-dioxopiperidin-3-yl)benzamide], the Dmax was less than 50% and the half-inhibitory concentration (IC50) is 50 to 100 nM.

In turn, `CNC(=O)COc1cc2cc(Nc3nc(N4CCN(CC5CCN(c6cccc(C(=O)NC7CCC(=O)NC7=O)n6)CC5)CC4)ncc3Cl)ccc2n(C)c1=O` (stereo not shown) [compound 320, 6-[4-({4-[5-chloro-4-({1-methyl-3-[(methylcarbamoyl)methoxy]-2-oxo-1,2-dihydroquinolin-6-yl}amino)pyrimidin-2-yl]piperazin-1-yl}methyl)piperidin-1-yl]-N-(2,6-dioxopiperidin-3-yl)pyridine-2-carboxamide] came in with a Dmax of less than 50% and a 50% inhibitory concentration (IC50) of less than 10 nM.

Compound `CNC(=O)COc1cc2cc(Nc3nc(N4CCN(CCN5CCN(c6cccc7c6C(=O)N(C6CCC(=O)NC6=O)C7=O)CC5)CC4)ncc3Cl)ccc2n(C)c1=O` (stereo not shown) [compound 321, 2-{[6-({5-chloro-2-[4-(2-{4-[2-(2,6-dioxopiperidin-3-yl)-1,3-dioxo-2,3-dihydro-1H-isoindol-4-yl]piperazin-1-yl}ethyl)piperazin-1-yl]pyrimidin-4-yl}amino)-1-methyl-2-oxo-1,2-dihydroquinolin-3-yl]oxy}-N-methylacetamide] came in with a maximal degradation (Dmax) of 50 to 70% and an IC50 of less than 10 nM.

`CNC(=O)COc1cc2cc(Nc3nc(N4CCN(CCC5CCN(c6ccc7c(c6)C(=O)N(C6CCC(=O)NC6=O)C7=O)CC5)CC4)ncc3Cl)ccc2n(C)c1=O` (stereo not shown) [compound 322, 2-{[6-({5-chloro-2-[4-(2-{1-[2-(2,6-dioxopiperidin-3-yl)-1,3-dioxo-2,3-dihydro-1H-isoindol-5-yl]piperidin-4-yl}ethyl)piperazin-1-yl]pyrimidin-4-yl}amino)-1-methyl-2-oxo-1,2-dihydroquinolin-3-yl]oxy}-N-methylacetamide]: the Dmax is 50 to 70% and the half-inhibitory concentration (IC50) lay within 10 to 50 nM.

`CNC(=O)COc1cc2cc(Nc3nc(N4CCN(CC5CCN(c6ccc7c(c6)C(=O)N(C6CCC(=O)NC6=O)C7=O)CC5)CC4)ncc3Cl)ccc2n(C2CC2)c1=O` (stereo not shown) [compound 323, 2-{[6-({5-chloro-2-[4-({1-[2-(2,6-dioxopiperidin-3-yl)-1,3-dioxo-2,3-dihydro-1H-isoindol-5-yl]piperidin-4-yl}methyl)piperazin-1-yl]pyrimidin-4-yl}amino)-1-cyclopropyl-2-oxo-1,2-dihydroquinolin-3-yl]oxy}-N-methylacetamide]: the greatest degradation seen (Dmax) was no less than 70% and the half-maximal inhibitory concentration (IC50) was less than 10 nM.

Compound `CCCCn1c(=O)c(OCC(=O)NC)cc2cc(Nc3nc(N4CCC[C@H](COc5cccc6c5C(=O)N(C5CCC(=O)NC5=O)C6=O)C4)ncc3Cl)ccc21` (stereo partly drawn) [compound 324, 2-{[1-butyl-6-({5-chloro-2-[(3S)-3-({[2-(2,6-dioxopiperidin-3-yl)-1,3-dioxo-2,3-dihydro-1H-isoindol-4-yl]oxy}methyl)piperidin-1-yl]pyrimidin-4-yl}amino)-2-oxo-1,2-dihydroquinolin-3-yl]oxy}-N-methylacetamide] gave a Dmax of 50 to 70% and an IC50 of less than 10 nM.

`CNC(=O)COc1cc2cc(Nc3nc(N4CCN(CC5CCN(c6cccc(C(=O)NC7CCC(=O)NC7=O)c6OC)CC5)CC4)ncc3Cl)ccc2n(C)c1=O` (stereo not shown) [compound 325, 3-[4-({4-[5-chloro-4-({1-methyl-3-[(methylcarbamoyl)methoxy]-2-oxo-1,2-dihydroquinolin-6-yl}amino)pyrimidin-2-yl]piperazin-1-yl}methyl)piperidin-1-yl]-N-(2,6-dioxopiperidin-3-yl)-2-methoxybenzamide] registered a Dmax of 50 to 70% and an IC50 of less than 10 nM.

With `CCN(C1CCN(c2ccc3c(c2)C(=O)N(C2CCC(=O)NC2=O)C3=O)CC1)C1CCN(c2ncc(Cl)c(Nc3ccc4c(c3)cc(OCC(=O)NC)c(=O)n4C)n2)CC1` (stereo not shown) [compound 326, 2-{[6-({5-chloro-2-[4-({1-[2-(2,6-dioxopiperidin-3-yl)-1,3-dioxo-2,3-dihydro-1H-isoindol-5-yl]piperidin-4-yl}(ethyl)amino)piperidin-1-yl]pyrimidin-4-yl}amino)-1-methyl-2-oxo-1,2-dihydroquinolin-3-yl]oxy}-N-methylacetamide], the Dmax was in the range of 50 to 70% and the IC50 lay within 10 to 50 nM.

With `CCCN(C1CCN(c2ccc3c(c2)C(=O)N(C2CCC(=O)NC2=O)C3=O)CC1)C1CCN(c2ncc(Cl)c(Nc3ccc4c(c3)cc(OCC(=O)NC)c(=O)n4C)n2)CC1` (stereo not shown) [compound 327, 2-{[6-({5-chloro-2-[4-({1-[2-(2,6-dioxopiperidin-3-yl)-1,3-dioxo-2,3-dihydro-1H-isoindol-5-yl]piperidin-4-yl}(propyl)amino)piperidin-1-yl]pyrimidin-4-yl}amino)-1-methyl-2-oxo-1,2-dihydroquinolin-3-yl]oxy}-N-methylacetamide], the maximal degradation (Dmax) fell in the range of 50 to 70% and the half-maximal inhibitory concentration (IC50) was in the range of 10 to 50 nM.

Take `CCn1c(=O)c(OCC(=O)NC)cc2cc(Nc3nc(N4CCC(OC5CN(C6CN(c7ccc8c(c7)C(=O)N(C7CCC(=O)NC7=O)C8=O)C6)C5)CC4)ncc3Cl)ccc21` (stereo not shown) [compound 328, 2-{[6-({5-chloro-2-[4-({1′-[2-(2,6-dioxopiperidin-3-yl)-1,3-dioxo-2,3-dihydro-1H-isoindol-5-yl]-[1,3′-biazetidin]-3-yl}oxy)piperidin-1-yl]pyrimidin-4-yl}amino)-1-ethyl-2-oxo-1,2-dihydroquinolin-3-yl]oxy}-N-methylacetamide]: the maximal degradation (Dmax) lay within 50 to 70% and the IC50 was less than 10 nM.
